Reference: patent US4489091A, “Antilipemic and anti-inflammatory compositions containing sulfonate derivatives” (Taiho Pharmaceutical Company Limited, priority 1980, dated 1984)
pIC50: −log10 of the molar value.

Tests used:
[1] = reported in the literature; cited from earlier work
triglycerides = assay: Antilipemic effect: percent triglycerides inhibition in plasma of rats given an olive oil-cholesterol mixture; type: in vivo, male Wistar rats; settings: oral 100 mg/kg, plasma 2 hours after dosing, Wistar rat; read-out: Anti-lipemic effect, TG (percent triglycerides inhibition)
Outline: (§1)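 Male Wistar rats, seven weeks old, 200 to 220 g, 5 per group, dosed orally at 100 or 200 mg/kg in olive oil-cholesterol mixture (15% cholesterol) at 10 ml/kg. Plasma triglycerides measured at 2 hours, total cholesterol at 8 hours, by enzymatic kits; percent inhibition calculated relative to vehicle control and untreated normal groups.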

cholesterol = assay: Antilipemic effect: percent total cholesterol inhibition in plasma of rats given an olive oil-cholesterol mixture; type: in vivo, male Wistar rats; settings: oral 100 mg/kg, plasma 8 hours after dosing, Wistar rat; read-out: Anti-lipemic effect, CS (percent cholesterol inhibition)
Outline: as §1

Acute toxicity = settings: rat, in vivo, po
From the text: Six-week-old male Wistar rats weighing 180 to 200 g are used, 5 rats in each group. Each compound of the invention is suspended in a 30% aqueous solution of polyethylene glycol 6000 and orally given to the rat at the dosage shown in Table 2. The animals are checked for poisoning, body weight and survival to determine the LD50 value.

esterase = assay: Esterase inhibiting activity; type: biochemical; settings: rat liver microsome esterase, methyl butyrate substrate, pH 8.0, 37° C., 60 minutes; read-out: IC50 for esterases
Experimental: A 10 micromole quantity of methyl butyrate in a 50% ethanol solution is added as a substrate to a specified amount of buffer solution containing 0.1 mole of trishydrochloric acid (pH 8.0). To the mixture is further added a 50% ethanol solution of the compound of the invention, immediately followed by addition of an esterase solution prepared from a purified microsome fraction of the liver of a rat (adjusted to hydrolyze 9 micromoles of methyl butyrate at 37° C. in one hour) as an enzyme solution. The mixture is reacted at 37° C. for 60 minutes.
After the reaction, alkaline hydroxylamine is added to the mixture to form a hydroxamic acid derivative of methyl butyrate, and a ferric salt is added to the derivative. The resulting red color is colorimetrically determined (at a wavelength of 540 nm) to determine the amount of remaining methyl butyrate. The esterase inhibiting ratios of the present compound at least at three concentrations are plotted as ordinate, and the logarithms of the concentrations as abscissa to obtain a line, which gives the 50% inhibition concentration (IC50).

chymotripsin = chymotripsin (Bos taurus, UniProt P00766); assay: Chymotripsin inhibiting activity; type: biochemical; settings: 0.5 h; compound 1×10^-4 mole, ATEE substrate, pH 8.0, 37° C.; read-out: Percent chymotripsin inhibition
Experimental: Chymotripsin (0.1 unit) serving as an enzyme solution is added to a specified quantity of buffer solution containing 0.1 mole of trishydrochloric acid (pH 8.0). To the mixture is further added a 50% ethanol solution of the compound of the invention so that the resulting mixture contains the compound in a concentration of 1×10^-4 mole. The mixture is reacted at 37° C. for 20 minutes.
On completion of the reaction, 10 micromoles of N-acetyl-L-thyrosine ethyl ester (ATEE) serving as a substrate is added to the mixture, and the resulting mixture is reacted at 37° C. for 30 minutes.
After the completion of the reaction, the amount of remaining ATEE is determined by the same hydroxamic acid method as above. The percent chymotripsin inhibition is given by [formula] wherein A is the amount of hydrolyzed esters in the reaction system not containing the compound of the invention, and B is the amount of hydrolyzed esters in the reaction system containing the present compound.

Compound | Side effects [1] | inhibition in vivo at 100 mg/kg (triglycerides) [%] | inhibition in vivo at 100 mg/kg (cholesterol) [%] | LD50 (Acute toxicity) [mg/kg] | pIC50 (esterase) | inhibition at 100 µM (chymotripsin) [%]
O=C(O)c1cccnc1 [nicotinic acid] | pruritus and cutaneous flushing due to vasodilatation, gastrointestinal disorders, abnormalities in liver function and glucose intolerance | – | – | – | – | –
CCCCC(CC)C(=O)COS(=O)(=O)c1ccc(OCC)cc1 (stereo not shown) [Compound 50] | – | 80 | 94 | > 4500 | 4.68 | 31
CCCCCC(=O)COS(=O)(=O)c1ccccc1 [Compound 8] | – | 87 | 60 | > 2000 | 7.14 | 100
CCOc1ccc(S(=O)(=O)OCC(=O)CCC(C)C)cc1 [Compound 138] | – | 95 | 90 | > 2000 | 5.38 | 67
C=CCCC(=O)COS(=O)(=O)c1ccccc1 [Compound 14] | – | 92 | 62 | > 2000 | 6.28 | 25
CCOc1ccc(S(=O)(=O)OCC(=O)CC(CC)CC)cc1 [Compound 137] | – | 81 | 72 | > 4000 | 5.00 | 14
CCCC(CCC)C(=O)COS(=O)(=O)c1ccc(OCC)cc1 [Compound 135] | – | 91 | 92 | > 4500 | 4.25 | 10
